Experimental findings from patent publication US12698507B2, “Methods and compositions for conferring and/or enhancing herbicide tolerance using protoporphyrinogen IX oxidase of various cyanobacteria or variant thereof” (FarmHannong Co., Ltd., priority 2019, dated 2026) are described below.

Numbering of substitutions follows the chain as printed. In names and notes the source's numbering stands. Where two headings read alike, the source gives them in different places.

For test [1], the target named is Thermosynechococcus elongatus PKUAC-SCTE542 protoporphyrinogen IX oxidase CyPPO19 (SEQ ID NO: 1) variant V165C (MBP fusion) (Thermosynechococcus sichuanensis, UniProt A0A7D6JSC1, V165C). Description: PPO enzyme inhibition assay (IC50 for herbicides), CyPPO19 V165C fused to MBP. It is filed as biochemical.
Test [2] addresses Thermosynechococcus elongatus PKUAC-SCTE542 protoporphyrinogen IX oxidase CyPPO19 (SEQ ID NO: 1) variant A167L (MBP fusion) (Thermosynechococcus sichuanensis, UniProt A0A7D6JSC1, A167L). Nature of the test: biochemical. The following applies: 50 μM protoporphyrinogen IX, pH 7.5, room temperature, 30 min, 10,000 means equivalent to or higher, read-out: IC50.
Test [3] addresses Thermosynechococcus elongatus PKUAC-SCTE542 protoporphyrinogen IX oxidase CyPPO19 (SEQ ID NO: 1) variant A167C (MBP fusion) (Thermosynechococcus sichuanensis, UniProt A0A7D6JSC1, A167C). Description: biochemical.
In test [4] the target is Thermosynechococcus elongatus PKUAC-SCTE542 protoporphyrinogen IX oxidase CyPPO19 (SEQ ID NO: 1) variant A167I (MBP fusion) (Thermosynechococcus sichuanensis, UniProt A0A7D6JSC1, A167I). Nature of the test: biochemical. The following applies: 50 μM protoporphyrinogen IX, pH 7.5, room temperature, 30 min, 10,000 means equivalent to or higher, read-out: IC50.
Test [5] concerns the target Thermosynechococcus elongatus PKUAC-SCTE542 protoporphyrinogen IX oxidase CyPPO19 (SEQ ID NO: 1) variant V305L (MBP fusion) (Thermosynechococcus sichuanensis, UniProt A0A7D6JSC1, V305L). Nature of the test: PPO enzyme inhibition assay (IC50 for herbicides), CyPPO19 V305L fused to MBP. It is filed as biochemical.
The target of test [6] is Thermosynechococcus elongatus PKUAC-SCTE542 protoporphyrinogen IX oxidase CyPPO19 (SEQ ID NO: 1) variant V305M (MBP fusion) (Thermosynechococcus sichuanensis, UniProt A0A7D6JSC1, V305M). Nature of the test: PPO enzyme inhibition assay (IC50 for herbicides), CyPPO19 V305M fused to MBP. Type of test: biochemical.
In test [7] the target is T1, Thermosynechococcus elongatus PKUAC-SCTE542 protoporphyrinogen IX oxidase CyPPO19, wild type, SEQ ID NO: 1 (MBP fusion) (Thermosynechococcus sichuanensis, UniProt A0A7D6JSC1).
T1 sequence (A0A7D6JSC1 1-467): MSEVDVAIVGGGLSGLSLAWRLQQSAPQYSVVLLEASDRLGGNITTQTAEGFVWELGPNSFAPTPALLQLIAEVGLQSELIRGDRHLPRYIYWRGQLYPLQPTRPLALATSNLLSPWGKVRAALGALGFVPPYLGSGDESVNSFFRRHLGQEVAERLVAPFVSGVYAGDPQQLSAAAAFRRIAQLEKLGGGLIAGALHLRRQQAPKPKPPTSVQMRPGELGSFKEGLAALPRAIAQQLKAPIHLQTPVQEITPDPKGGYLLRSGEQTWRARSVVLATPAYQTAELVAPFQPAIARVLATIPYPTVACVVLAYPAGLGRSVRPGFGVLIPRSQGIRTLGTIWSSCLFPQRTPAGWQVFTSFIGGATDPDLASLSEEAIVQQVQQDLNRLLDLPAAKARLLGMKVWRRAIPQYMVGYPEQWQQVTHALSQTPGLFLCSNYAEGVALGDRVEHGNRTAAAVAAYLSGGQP
Description: PPO enzyme inhibition assay (IC50 for herbicides), CyPPO19 wild type fused to MBP. It is filed as biochemical.

Test [8] has as its target Thermosynechococcus elongatus PKUAC-SCTE542 protoporphyrinogen IX oxidase CyPPO19 (SEQ ID NO: 1) variant V165S (MBP fusion) (Thermosynechococcus sichuanensis, UniProt A0A7D6JSC1, V165S). Nature of the test: biochemical. As to conditions: 50 μM protoporphyrinogen IX, pH 7.5, room temperature, 30 min, 10,000 means equivalent to or higher, read-out: IC50.
Test [9] deals with Thermosynechococcus elongatus PKUAC-SCTE542 protoporphyrinogen IX oxidase CyPPO19 (SEQ ID NO: 1) variant R89A (MBP fusion) (Thermosynechococcus sichuanensis, UniProt A0A7D6JSC1, R89A). Description: biochemical.
Test [10] deals with transgenic A. thaliana (T1) transformed with CyPPO19, CyPPO18 or variant genes. Description: Herbicide tolerance of transgenic A. thaliana (T1 plants). Type of test: in vivo, Arabidopsis thaliana. The following applies: 1 μM tiafenacil and 0.05% Silwet L-77. The text has this:
Transgenic plants were screened with glufosinate tolerance which was conferred by Bar gene expression in the binary vector. […] They were, then, transplanted into soil and grown to obtain T1 plants.

Test [11] relates to wild type A. thaliana (Col-0). Description: Herbicide injury of wild type A. thaliana (Col-0) after spraying. Type of test: in vivo, Arabidopsis thaliana. As to conditions: 1 μM tiafenacil and 0.05% Silwet L-77, within 7 days.
A further test has as its system A. thaliana. Nature of the test: PPO-inhibiting herbicide tolerance test of transgenic A. thaliana (herbicide spray, injury index). It is filed as in vivo, Arabidopsis thaliana. The following applies: transgenic A. thaliana (T2), tiafenacil or flumioxazin spray.
Test [12] deals with PPO-deficient BT3 E. coli (ΔPPO). Description: PPO-inhibiting herbicide tolerance test of PPO variants in E. coli (growth on herbicide-containing LB agar). Type of test: cell-based. The following applies: CyPPO18 variants in BT3 (ΔPPO) E. coli; LB agar with 0 to 2,000 μM herbicide, 37° C., dark, 16-20 hours. Summed up:
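PPO-deficient BT3 E. coli expressing each variant from pET303 were diluted to OD600=0.5, then 10-fold serially, and spotted on LB-ampicillin agar with 0 to 2,000 μM herbicide. After 16-20 h at 37° C. in the dark, growth relative to wild type was scored from '−' (equivalent) to '+' per 10-fold resistance, max '+++++'.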

Chain of Thermosynechococcus elongatus PKUAC-SCTE542 protoporphyrinogen IX oxidase CyPPO19 (SEQ ID NO: 1) variant A167C (MBP fusion) (A0A7D6JSC1 entry or part of it A167C): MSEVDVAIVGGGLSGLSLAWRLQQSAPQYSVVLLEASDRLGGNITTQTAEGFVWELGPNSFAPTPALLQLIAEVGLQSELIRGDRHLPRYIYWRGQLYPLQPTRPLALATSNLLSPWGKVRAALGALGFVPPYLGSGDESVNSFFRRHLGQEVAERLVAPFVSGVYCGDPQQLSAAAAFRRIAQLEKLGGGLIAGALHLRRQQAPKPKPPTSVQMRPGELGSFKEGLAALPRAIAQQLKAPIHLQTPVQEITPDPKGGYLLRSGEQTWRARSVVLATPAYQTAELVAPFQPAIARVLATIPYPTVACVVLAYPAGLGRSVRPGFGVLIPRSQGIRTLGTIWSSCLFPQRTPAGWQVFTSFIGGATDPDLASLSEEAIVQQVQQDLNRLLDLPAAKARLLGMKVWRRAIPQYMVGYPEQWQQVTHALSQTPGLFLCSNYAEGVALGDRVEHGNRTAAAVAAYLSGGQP
Chain of Thermosynechococcus elongatus PKUAC-SCTE542 protoporphyrinogen IX oxidase CyPPO19 (SEQ ID NO: 1) variant V305M (MBP fusion) (A0A7D6JSC1 entry or part of it V305M): as the sequence (A0A7D6JSC1 entry or part of it A167C) above, with C167A, V305M counted along it
Chain of Thermosynechococcus elongatus PKUAC-SCTE542 protoporphyrinogen IX oxidase CyPPO19 (SEQ ID NO: 1) variant V165C (MBP fusion) (A0A7D6JSC1 entry or part of it V165C): as the sequence (A0A7D6JSC1 entry or part of it A167C) above, with V165C, C167A counted along it
Chain of Thermosynechococcus elongatus PKUAC-SCTE542 protoporphyrinogen IX oxidase CyPPO19 (SEQ ID NO: 1) variant R89A (MBP fusion) (A0A7D6JSC1 entry or part of it R89A): as the sequence (A0A7D6JSC1 entry or part of it A167C) above, with R89A, C167A counted along it
Chain of Thermosynechococcus elongatus PKUAC-SCTE542 protoporphyrinogen IX oxidase CyPPO19 (SEQ ID NO: 1) variant V305L (MBP fusion) (A0A7D6JSC1 entry or part of it V305L): as the sequence (A0A7D6JSC1 entry or part of it A167C) above, with C167A, V305L counted along it
Chain of Thermosynechococcus elongatus PKUAC-SCTE542 protoporphyrinogen IX oxidase CyPPO19 (SEQ ID NO: 1) variant A167L (MBP fusion) (A0A7D6JSC1 entry or part of it A167L): as the sequence (A0A7D6JSC1 entry or part of it A167C) above, with C167L counted along it
Chain of Thermosynechococcus elongatus PKUAC-SCTE542 protoporphyrinogen IX oxidase CyPPO19 (SEQ ID NO: 1) variant V165S (MBP fusion) (A0A7D6JSC1 entry or part of it V165S): as the sequence (A0A7D6JSC1 entry or part of it A167C) above, with V165S, C167A counted along it
Chain of Thermosynechococcus elongatus PKUAC-SCTE542 protoporphyrinogen IX oxidase CyPPO19 (SEQ ID NO: 1) variant A167I (MBP fusion) (A0A7D6JSC1 entry or part of it A167I): as the sequence (A0A7D6JSC1 entry or part of it A167C) above, with C167I counted along it

For the molecule `CS(=O)(=O)NC(=O)c1cc(Oc2ccc(C(F)(F)F)cc2Cl)ccc1[N+](=O)[O-]` [Fomesafen], the half-inhibitory concentration (IC50) in test [1] was determined as 330 nM; in test [2] it was 1760 nM; in test [3] it was 843 nM; in test [4], 899 nM; in test [5], 466 nM; in test [6] it was 257 nM. In addition, the figures for the IC50 in test [7], in test [8] and in test [9] were 242 nM, 348 nM and 2360 nM, respectively.

For the molecule `COC(=O)CCNC(=O)C(C)Sc1cc(-n2c(=O)cc(C(F)(F)F)n(C)c2=O)c(F)cc1Cl` (centres unmarked) [Tiafenacil], the half-inhibitory concentration (IC50) stood at 186 nM in [1]; 597 nM in test [2]; 342 nM in test [3]; 248 nM in test [4]; 1140 nM in test [5]; 392 nM in test [6]. The 50% inhibitory concentration (IC50) in test [7] (CyPPO19 WT, 50 μM protoporphyrinogen IX, pH 7.5, room temperature, 30 min, read-out: IC50) came out at 67 nM; in test [8], 269 nM; in test [9], 113 nM. Besides, the “survival after herbicide treatment” value is “survived” in test [10] and “completely died within 7 days” in [11].

B1: CyPPO19 WT: PPO protein derived from Thermosynechococcus elongatus PKUAC-SCTE542 strain, SEQ ID NO: 1 (protein)
chain: T1 sequence (A0A7D6JSC1 1-467)
modifications: Synthetic_PPO of Thermosynechococcus elongatus PKUAC-SCTE542 (comprising GenBank No. CP032152.1)
With B1, the “herbicide tolerance compared to non-transgenic plants” value with A. thaliana is reported as “increased herbicide tolerance”.

B2: CyPPO18 WT: PPO protein derived from Thermosynechococcus vulcanus NIES-2134 strain, SEQ ID NO: 3 (protein)
chain: MIEVDVAIVGGGLSGLSVAWRLQRSAPHYSGVLLEASDRLGGNITTQAAEGFVWELGPNSFAPTPALLQLIAEVGLHSELIRGDRHLPRYIYWRGELYPLEPTRPLALATSNLLSPWGKVRAALGALGFVPPYLGSGDESVDSFFRRHLGQEVAERLVAPFVSGVYAGDPQQLSAAAAFRRIAQLEKLGGSLIAGALRLRRQQPPQPKPPAQVQMRPGELGSFREGLAALPRAIAQQLKAPLHLQTPVEAITPEPKGGYLLRSGEQTWHARSVVLATPAYQSAELVAPFQPAIARALATIPYPTVACVVLAYPAGLGRSVRPGFGVLVPRGQGIRTLGTIWSSCLFPQRTPAGWQVFTSFIGGATDPDLASLREEAIVEQVQQDLTRLLDLPAAKARLLGMKVWRRAIPQYIVGYPQQWQQLTHALTQTPGLFLCSNYAEGVALGDRVEHGNRTAAAVAAYLAGGQS
modifications: Synthetic_PPO of Thermosynechococcus vulcanus NIES-2134 (BAY51976)
As to B2, the “herbicide tolerance compared to non-transgenic plants” value in the test on A. thaliana is recorded as “increased herbicide tolerance”.

B3: CyPPO18 R89A + V165C + A167L + V305M + F360I: variant of CyPPO18 PPO protein (SEQ ID NO: 3) (protein)
chain: B2 chain with R89A, V165C, A167L, V305M, F360I
modifications: Synthetic_PPO of Thermosynechococcus vulcanus NIES-2134 (BAY51976)
Turning to B3, in test [12], the “tolerance level relative to wild type, Carfentrazone” value is listed as “++ (‘+’ per each 10-fold resistance)”; the “tolerance level relative to wild type, Flumioxazin” value was “+++++ (until ‘+++++’ as maximal resistance)”; the “tolerance level relative to wild type, Fomesafen” value is given as “+++++ (until ‘+++++’ as maximal resistance)”; the “tolerance level relative to wild type, Oxyfluorfen” value is listed as “++ (‘+’ per each 10-fold resistance)”. In [12], the “tolerance level relative to wild type, Saflufenacil” value is “+++++ (until ‘+++++’ as maximal resistance)”; the “tolerance level relative to wild type, Sulfentrazone” value is reported as “+++++ (until ‘+++++’ as maximal resistance)”; the “tolerance level relative to wild type, Tiafenacil” value is given as “+++++ (until ‘+++++’ as maximal resistance)”.
